Residues, ends and D or L forms follow the SMILES beside them. No end group written: not given here.
Columns and labels:
[1] = molecular target: RPtag (large); assay: Fluorescence anisotropy Kd of rhodamine labeled RPtag (small) peptides for RPtag (large); assay type: binding, Thermoanaerobacter tengcongensis; conditions: for Kd: N-terminal rhodamine tagged peptide, unlabeled RPtag (large), 50 mM Tris pH 8.0, 0.005% Tween 20, mean ± SE; for effect of alanine mutation on binding affinity to RPtag(large): alanine scanning versus native
Protocol: 50 nM of RP-Tag Small (see Sequence 3, below) with an N-terminal Rhodamine B label was incubated with increasing concentrations of either RP-Tag Large (see Sequence 2) or Bovine Serum Albumin (BSA) in 50 mM Tris pH 8.0, 150 mM NaCl, 10 mM 2-mercaptoethanol, and 0.005% Tween 20 for 5 min in black 96-well plates at room temperature.
Anisotropy was then measured, and a Kd calculated by fitting the data to the equation f=y0+(ymax−y0)*(Ptot+x+Kd−sqrt((Ptot+x+Kd)^2−4*Ptot*x))/(2*Ptot), where y0 is the baseline anisotropy, ymax is the maximum anisotropy, Ptot is the fixed concentration of labeled peptide used, x is the variable concentration of protein used, and Kd is the measured Kd.
The indicated concentrations of RPtag (large) and an anti-His tag antibody (4E3D10H2/E3 purchased from ThermoFisher Scientific) were incubated with 1 nM rhodamine labeled native RPtag (small) peptide and 6×His peptide (Rhodamine-GHHHHHH), respectively, and fluorescence anisotropy measured. BSA incubated with native rhodamine labeled RPtag(small) is included as a control for non-specific binding. Kd's were calculated according to the equation f=y0+(ymax−y0)*(Ptot+x+Kd−sqrt((Ptot+x+Kd)^2−4*Ptot*x))/(2*Ptot), where y0 is the baseline anisotropy, ymax is the maximum anisotropy, Ptot is the fixed concentration of labeled peptide used, x is the variable concentration of protein used, and Kd is the measured Kd. We measured a Kd of 0.2±0.1 nM for RPtag(large) binding RPtag(small), and a Kd of 6±1 nM for the antibody/6×His tag pair.
Regarding the studies shown in FIG. 14, increasing concentrations of unlabeled RPtag large with the indicated mutations (native, f137d, and f137e) were incubated for 1 h with 1 nM rhodamine labeled RPtag small peptide and the fluorescence anisotropy was measured. Resultant curves were fit with the equation f=y0+(ymax−y0)*(Ptot+x+Kd−sqrt((Ptot+x+Kd)^2−4*Ptot*x))/(2*Ptot), where y0 is the baseline anisotropy, ymax is the maximum anisotropy, Ptot is the fixed concentration of labeled peptide used, x is the variable concentration of protein used, and Kd is the measured Kd. Data are presented here as Ka=1/Kd. Log transformed Ka's were then compared by one-way ANOVA with Holm-Sidak post hoc correction. ***p<0.001, **p<0.01, *p<0.05. data are mean±SEM (n=3-4). Buffer was 50 mM Tris pH 8.0, 0.005% tween20. Proteins were expressed and purified by single step NiNTA chromatography as before. Peptides were synthesized solid-state and handled as previous.

[2] = test system: RPtag (large); assay: Association/dissociation kinetics of RPtag (small) peptides with RPtag (large) by fluorescence anisotropy; assay type: binding, Thermoanaerobacter tengcongensis; conditions: for koff: LS dissociation, unlabeled competitor peptide; for kf: S to S* forward rate constant; for kr: S* to S reverse rate constant, calculated from Keq and kf; for kon (M^−1 min^−1 ) (×10^7): S*-LS transition, calculated from measured koff and Kd
Protocol: Panel a depicts representative association rate kinetics traces varying native RPtag small. Rhodamine labeled RPtag small at the indicated concentration was incubated with unlabeled RPtag large and the association measured by fluorescence anisotropy. L-S complex concentration was calculated by the equation (r−rmin)/(rmax−rmin)*[S] where r is the measured anisotropy, rmin is the anisotropy in the absence of any RPtag large, rmax is the anisotropy measured in the presence of at saturating RPtag large, and [S] is the total concentration of RPtag small used in the experiment. […] Dashed cyan lines are simulations of the mechanism shown in f using the rate constants detailed herein. The concentrations in the simulations were multiplied by a correction factor of 0.925, which is well within the 90% purity specification of the purchased peptide.
LS complex was performed by incubating 1000 nM RPtag large with the indicated concentrations of rhodamine labeled RPtag small. At the start of the experiment, 0.1 mM unlabeled native RPtag small was added and fluorescence anisotropy monitored. Data processing was done as in panel a, except the red fits were to the single exponential decay equation y=y0+A*exp(−b*t). As expected, the initial dissociation rates were linear with respect to the LS complex.
Fitting to a line yields a rate constant (koff)=0.0091 min^−1 (FIG. 9 panel e). In good agreement, when the kinetics are fit with a first order rate law, a rate constant of 0.012±0.002 min^−1 (n=15) was observed. […] Panel e is a graph of the initial rates of the traces represented in d. Slope of the fit line is 0.0091 min^−1. Data are mean±SE (n=3).
The library of mutant RPtag(small) peptides, described above, was next analyzed to measure off rates (koff). The on rate was also calculated from measured koff and Kd (S*-LS transition), except instead of using unlabeled native peptide as the competitor, we used unlabeled Nd2,P5A,E18A (the tightest binding RPtag(small) peptide identified). […] However, there were notable exceptions. […] This indicates, without wishing to be limited, that P5 may constrain the structure of the peptide. The increased flexibility imparted to the peptide by the P5A mutation may decrease the energy barrier required for binding/unbinding.

Molecule	Kd [1] [nM]	koff [2] [s⁻¹]	kf [2] [min⁻¹]	kr [2] [min⁻¹]	kon (M^−1 min^−1 ) (×10^7) [2]	effect of alanine mutation on binding affinity to RPtag(large) [1]
CC(C)[C@H](NC(=O)[C@H](CC(N)=O)NC(=O)[C@@H](N)CCC(=O)O)C(=O)N[C@@H](CCC(N)=O)C(=O)O [Nd17, ENVQ] (H-ENVQ-OH; N-terminus and C-terminus assumed)	> 100000	–	–	–	–	–
CC[C@H](C)[C@H](NC(=O)[C@H](CC(C)C)NC(=O)[C@H](CCCCN)NC(=O)[C@H](CC(C)C)NC(=O)[C@H](CCC(=O)O)NC(=O)[C@H](C)NC(=O)[C@@H]1CCCN1C(=O)[C@@H](NC(=O)[C@H](Cc1ccccc1)NC(=O)[C@H](CC(N)=O)NC(=O)[C@@H]1CCCN1C(=O)[C@@H](NC(=O)[C@H](CCCCN)NC(=O)[C@H](CCC(=O)O)NC(=O)[C@H](C)N)[C@@H](C)CC)[C@@H](C)CC)C(=O)N[C@H](C(=O)N[C@@H](CCCCN)C(=O)N[C@@H](CCC(=O)O)C(=O)N[C@@H](CC(N)=O)C(=O)N[C@H](C(=O)N[C@@H](CCC(N)=O)C(=O)O)C(C)C)[C@@H](C)O [g1a]	0.29 ± 0.03	7.83e-05 ± 5e-06	0.086 ± 0.004	0.037 ± 0.001	1.6 ± 0.1 ×10^7 M^−1 min^−1	–
AIANFIPAELKLITKANVQ [Nd2, k3a, e18a]	0.88 ± 0.01	0.000533 ± 1.7e-05	–	–	2.6 ± 0.1 ×10^7 M^−1 min^−1	–
FIPAELKLITK [Nd6, Cd4, FIPAELKLITK]	9.9 ± 1.1	>0.033	–	–	–	–
GAKIPNFIPAELKLITKENVQ [e2a]	–	8.83e-05 ± 1.2e-05	–	–	5.1 ± 0.7 ×10^7 M^−1 min^−1	significantly increased binding affinity
GEKIP [Cd16]	> 100000	–	–	–	–	–
GEKIPN [Cd15]	> 100000	–	–	–	–	–
GEKIPNF [Cd14]	> 100000	–	–	–	–	–
GEKIPNFI [Cd13]	> 100000	–	–	–	–	–
GEKIPNFIAPELALITKENVQ [k13a]	1.1 ± 0.1	0.0003 ± 1.7e-05	–	–	1.7 ± 0.1 ×10^7 M^−1 min^−1	–
GEKIPNFIPA [Cd11]	> 100000	–	–	–	–	–
GEKIPNFIPAE [Cd10]	> 100000	–	–	–	–	–
GEKIPNFIPAEL [Cd9]	> 100000	–	–	–	–	–
GEKIPNFIPAELK [Cd8]	> 100000	–	–	–	–	–
GEKIPNFIPAELKLITKANVQ [e18a]	–	0.000145 ± 6.7e-06	–	–	16 ± 0.8 ×10^7 M^−1 min^−1	significantly increased binding affinity
GEKIPNFIPAELKLITKENV [Cd1]	0.55 ± 0.04	0.000102 ± 1e-05	0.10 ± 0.01	0.042 ± 0.007	1.1 ± 0.1 ×10^7 M^−1 min^−1	–
GEKIPNFIPAELKLITKENVQ [n19a, RPtag(small) with N19 changed to alanine]	0.26 ± 0.02	0.000617 ± 5e-05	0.089 ± 0.003	0.057 ± 0.008	14 ± 1 ×10^7 M^−1 min^−1	–
GEKIPNFIPAELKLITKENVQ [q21a, RPtag(small) with Q21 changed to alanine]	–	5.67e-05 ± 5e-06	0.087 ± 0.005	–	–	significantly increased binding affinity
GEKIPNFIPAELKLITKENVQ [v20a, RPtag(small) with V20 changed to alanine]	0.18 ± 0.03	0.0002 ± 1.7e-05	0.073 ± 0.003	–	6.8 ± 0.5 ×10^7 M^−1 min^−1	–
ITKENVQ [Nd14]	> 100000	–	–	–	–	–
KENVQ [Nd16]	> 100000	–	–	–	–	–
TKENVQ [Nd15]	> 100000	–	–	–	–	–
